From patent US6815546B2, “Analogues of camptothecin, their use as medicaments and the pharmaceutical compositions containing them” (Societe de Recherches et d'Applications Scientifiques …, priority 1995, dated 2004)

Assays:
[1] = test system: Adenocarcinoma HT29 cells from the human colon; assay: Adenocarcinoma HT29 cell proliferation, WST1 (compounds in DMA); format: cell-based; settings: final DMA 0.1% (v/v)
Procedure: c. Adenocarcinoma HT29 cells from the human colon are cultured in a single layer at 37° in a humidified atmosphere containing 95% of air and 5% of CO2, in a modified essential Earle's medium at 4.5 g/l (Gibco, Paisley, United Kingdom); completed with 10% of inactivated foetal calf serum, 2 mM of glutamine, and 50 μg/ml of gentamycin (Gibco, Paisley, United Kingdom).
Approximately 2000 cells are seeded with the culture medium above in the wells of a microplate (96 wells, flat-bottomed) and incubated for 24 hours. Solutions in N,N-dimethyl-acetamide (DMA) of each of the examples of the invention, diluted in the culture medium so that the final concentration of DMA is 0.1% (v/v), are added to the plate cultures in order to obtain final concentration ranges from 1×10^−13 to 1×10^−5 M, and the cells are incubated for 72 hours.
The WST1 staining reagent, (Boehringer Mannheim, Germany) is then added to each well at a final concentration of 9%, and the cells are incubated for 2 hours at 37° C. This stage allows the mitochondrial deshydrogenase of the living cells to convert WST1 orange tetrazolium salt into crimson formazan. The resulting stained solutions are quantified by dual-beam detection ([…]) using a multi-cuvette scanning spectrophotometer.
The results shown in the following table III C) are expressed in terms of inhibitory concentration at 50% (IC50, in nM), accompanied by a confidence interval.

[2] = target: T1, DNA topoisomerase 1 of purified calf thymus (Bos taurus, UniProt F1MN93); assay: Relaxation activity test of DNA induced by topoisomerase 1; format: biochemical; settings: supercoiled pUC19, 15 minutes at 37° C.
T1 construct: DNA topoisomerase 1 of purified calf thymus (Gibco-BRL, Paisley, United Kingdom); purchased Gibco-BRL, Paisley, United Kingdom; host or cells: calf thymus tissue
T1 sequence (F1MN93 1-767): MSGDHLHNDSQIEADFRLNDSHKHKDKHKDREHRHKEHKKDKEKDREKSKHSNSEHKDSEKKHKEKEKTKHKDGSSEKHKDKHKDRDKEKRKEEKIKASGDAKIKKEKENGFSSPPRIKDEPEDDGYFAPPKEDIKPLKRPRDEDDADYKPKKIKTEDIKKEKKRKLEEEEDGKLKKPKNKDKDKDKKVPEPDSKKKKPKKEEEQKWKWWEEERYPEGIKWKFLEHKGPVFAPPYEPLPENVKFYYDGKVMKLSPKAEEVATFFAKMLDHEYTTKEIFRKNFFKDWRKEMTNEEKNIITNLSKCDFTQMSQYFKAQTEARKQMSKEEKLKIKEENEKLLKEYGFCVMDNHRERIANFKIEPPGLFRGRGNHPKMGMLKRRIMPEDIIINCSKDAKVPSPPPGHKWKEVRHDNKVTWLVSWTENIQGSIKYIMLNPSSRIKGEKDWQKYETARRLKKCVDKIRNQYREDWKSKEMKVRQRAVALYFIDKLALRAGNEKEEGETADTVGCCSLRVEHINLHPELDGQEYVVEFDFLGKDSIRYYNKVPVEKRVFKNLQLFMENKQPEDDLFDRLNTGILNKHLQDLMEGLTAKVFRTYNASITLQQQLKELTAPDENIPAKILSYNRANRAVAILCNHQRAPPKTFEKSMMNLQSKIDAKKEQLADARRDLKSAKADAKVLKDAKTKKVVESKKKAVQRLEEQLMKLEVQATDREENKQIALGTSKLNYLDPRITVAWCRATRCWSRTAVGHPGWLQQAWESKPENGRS
Procedure: 1. Relaxation Activity Test of DNA Induced by Topoisomerase 1
All the reactions are carried out in a 20 μl reaction buffer constituted by 50 mM of Tris-HCl (pH 7.5), 50 mM of KCl, 0.5 mM of dithiothreitol, 10 mM of MgCl2, 0.1 mM of ethyldiamine tetraacetic acid (EDTA), 30 μg/ml of bovine serum albumin and 300 ng of supercoiled pUC19 (Pharmacia Biotech, Orsay, France) with or without the compounds to be tested at defined concentrations. All the compounds to be tested are initially dissolved in dimethylsulphoxide (DMSO) at 50 mM, the other dilutions being carried out with distilled water. […] The reaction is initiated by the addition of a unit of DNA topoisomerase 1 of purified calf thymus (Gibco-BRL, Paisley, United Kingdom) and is carried out for 15 minutes at 37° C. The reactions are stopped by the addition of 3 μl of a mixture containing 1% dodecyl sodium sulphate at 1%, 20 mM of EDTA and 500 μg/ml of K proteinase (Boehringer Mannheim, Meylan, France). After an additional incubation period of 30 minutes at 37° C., 2 μl of a loading buffer containing 10 mM of Na2HPO4, 0.3% of bromophenol blue et 16% Ficoll are added to samples which are subjected to electrophoresis in agarose gels at 1.2% at 1 V/cm for 20 hours in a buffer containing 36 mM of Tris-HCl at pH 7.8, 30 mM of Na2HPO4, 1 mM of EDTA and 2 μg/ml of chloroquine. The gels are stained with 2 μg/ml of ethidium bromide, photographed under UV light at 312 nm with a camera and the fluorescent intensity is measured with a bioProfil camera (Vilber Lournat, Lyon, France) with a view to determining the percentage of relaxed DNA. Each experiment is carried out at least three times in duplicate.
In each experiment, the supercoiled plasmid DNA is incubated alone or with topoisomerase 1. The reaction is completed within 15 minutes. For each compound to be tested or control, the supercoiled plasmid DNA is incubated in the presence of 500 μM of compound to be tested with enzyme or without enzyme plus the compound to be tested, at concentrations of 10 μM, 100 μM, 200 μM and 500 μM.

In the case of `CCCCc1c2c(nc3ccccc13)-c1cc3c(c(=O)n1C2)COC(=O)C[C@]3(O)CC` [Example 87, (5R)-12-butyl-5-ethyl-5-hydroxy-4,5,13,15-tetrahydro-1H,3H-oxepino[3′,4′:6,7]indolizino[1,2-b]quinoline-3,15-dione], the IC50 ([1]; Homo sapiens, HT-29, 72 hours) is reported as 16 nM.

For `CC[C@@]1(O)CC(=O)OCc2c1cc1n(c2=O)Cc2c-1nc1cc(F)ccc1c2CCc1ccccc1` [Example 140, (5R)-5-ethyl-9-fluoro-5-hydroxy-12-phenethyl-4,5,13,15-tetrahydro-1H,3H-oxepino[3′,4′:6,7]indolizino[1,2-b]quinoline-3,15-dione], the IC50 ([1]; Homo sapiens, HT-29, 72 hours) was 3.2 nM.

`CCOC(=O)CC(O)(CC)c1cc2n(c(=O)c1CO)Cc1cc3ccccc3nc1-2` (stereo not shown) [Example 2, ethyl 3-hydroxy-3-[8-(hydroxymethyl)-9-oxo-9,11-dihydroindolizino [1,2-b]quinolin-7-yl]pentanoate] was tested, and the “PERCENTAGE OF RELAXED DNA” value ([2]; 10 μM compound) was 97.9%, the “PERCENTAGE OF RELAXED DNA” value ([2]; 100 μM compound) was 78.3% and the “PERCENTAGE OF RELAXED DNA” value ([2]; 200 μM compound) was 73.2%. The “PERCENTAGE OF RELAXED DNA” value ([2]; 500 μM compound) was 51.1%.

`CCc1c2c(nc3cc(F)cc(F)c13)-c1cc3c(c(=O)n1C2)COC(=O)C[C@]3(O)CC` [Example 102, (5R)-5,12-diethyl-9,1 1-difluoro-5-hydroxy-4,5,13,15-tetrahydro-1H,3H-oxepino[3′,4′:6,7]indolizino[1,2-b]quinoline-3,15-dione] was tested, and the IC50 ([1]; Homo sapiens, HT-29, 72 hours) was 8 nM.

With `CCC1(O)CC(=O)OCc2c1cc1n(c2=O)Cc2cc3c4c(ccc3nc2-1)OCN(Cc1ccccc1)C4` (stereo not shown) [Example 78, 2-benzyl-9-ethyl-9-hydroxy-1,2,3,9,10,16-hexahydro-13H-[1,3]oxazino[5,6f]oxepino[3′,4′:6,7]indolizino[1,2-b]quinoline-11,14-dione] the “PERCENTAGE OF RELAXED DNA” value ([2]; 10 μM compound) was 56.2%, the “PERCENTAGE OF RELAXED DNA” value ([2]; 100 μM compound) was 28.0% and the “PERCENTAGE OF RELAXED DNA” value ([2]; 200 μM compound) was 24.2%.

Compound `CC[C@@]1(O)CC(=O)OCc2c1cc1n(c2=O)Cc2cc3c(F)c(F)c(F)cc3nc2-1` [Example 171, (5R)-5-ethyl-9,10,11-trifluoro-5-hydroxy-4,5,13,15-tetrahydro-1H,3H-oxepino[3′,4′:6,7]indolizino[1,2-b]quinoleine-3,15-dione] has an IC50 ([1]; 72 hours) of 8.2 nM.

With `CCN1COc2ccc3nc4c(cc3c2C1)Cn1c-4cc2c(c1=O)COC(=O)CC2(O)CC` (stereo not shown) [Example 76, 2,9-diethyl-9-hydroxy-1,2,3,9,10,16-hexahydro-13H-[1,3]oxazino[5,6-f]oxepino[3′,4′:6,7]indolizino[1,2-b]quinoline-11,14-dione] the “PERCENTAGE OF RELAXED DNA” value ([2]; 10 μM compound) was 79.7%, the “PERCENTAGE OF RELAXED DNA” value ([2]; 100 μM compound) was 33.5% and the “PERCENTAGE OF RELAXED DNA” value ([2]; 200 μM compound) was 23.2%.

`CC[C@@]1(O)CC(=O)OCc2c1cc1n(c2=O)Cc2cc3ccc(F)cc3nc2-1` [Example 84, (5R)-5-ethyl-9-fluoro-5-hydroxy-4,5,13,15-tetrahydro-1H,3H-oxepino[3′,4′:6,7]indolizino[1,2-b]quinoline-3,15-dione] was tested, and the IC50 ([1]; Homo sapiens, HT-29, 72 hours) was 2.5 nM.

For `CC[C@@]1(O)CC(=O)OCc2c1cc1n(c2=O)Cc2c-1nc1ccccc1c2Cl` [Example 160, (5R)-12-chloro-5-ethyl-5-hydroxy-4,5,13,15-tetrahydro-1H,3H-oxepino[3′,4′:6,7]indolizino[1,2-b]quinoleine-3,15-dione], the IC50 ([1]; 72 hours) was 5.5 nM.

With `CCC1(O)CC(=O)OCc2c1cc1n(c2=O)Cc2cc3c4c(ccc3nc2-1)OCN(C)C4` (stereo not shown) [Example 77, 9-ethyl-9-hydroxy-2-methyl-1,2,3,9,10,16-hexahydro-13H-[1,3]oxazino[5,6f]oxepino[3′,4′:6,7]indolizino[1,2-b]quinoline-11,14-dione] the “PERCENTAGE OF RELAXED DNA” value ([2]; 10 μM compound) was 86.2%, the “PERCENTAGE OF RELAXED DNA” value ([2]; 100 μM compound) was 35.1% and the “PERCENTAGE OF RELAXED DNA” value ([2]; 200 μM compound) was 32.1%.

`CCC1(O)CC(=O)OCc2c1cc1n(c2=O)Cc2cc3c4c(c(F)cc3nc2-1)OCN(Cc1ccccc1)C4` (stereo not shown) [Example 79, 2-benzyl-9-ethyl-5-fluoro-9-hydroxy-1,2,3,9,10,16-hexahydro-13H-[1,3]oxazino[5,6f]oxepino[3′,4′:6,7]indolizino[1,2-b]quinoline-11,14-dione] was tested, and the “PERCENTAGE OF RELAXED DNA” value ([2]; 10 μM compound) was 55.6%, the “PERCENTAGE OF RELAXED DNA” value ([2]; 100 μM compound) was 38.9% and the “PERCENTAGE OF RELAXED DNA” value ([2]; 200 μM compound) was 30.0%.
